Measurements as given in PubChem BioAssay AID248 (DTP/NCI, 2004).
Where “and” joins values, the source holds several entries; their conditions need not be identical. Equal entries are not always repeated. Toxic doses and inconclusive results are not listed.

Test system: L1210 leukemia ip in BDF1 mice, survival T/C
Test: NCI In Vivo Anticancer Drug Screen. Data for tumor model L1210 Leukemia (intraperitoneal) in B6D2F1 (BDF1) mice
Settings: endpoint: mean survival time, higher = longer survival
Summary of the method: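 Ratio derived from survival: compound-dosed mice over vehicle-dosed mice, all bearing a transplantable tumor.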

[1] = dose: 25.0 mg/kg/injection, schedule: Q01DX009 (ip), vehicle: saline
[2] = dose: 50.0 mg/kg/injection, schedule: Q01DX009 (ip), vehicle: saline
[3] = dose: 100.0 mg/kg/injection, schedule: Q01DX001 (ip), vehicle: saline
[4] = dose: 100.0 mg/kg/injection, schedule: Q01DX009 (ip), vehicle: saline
[5] = dose: 100.0 mg/kg/injection, schedule: Q01DX009 (ip), vehicle: saline with Tween-80
[6] = dose: 100.0 mg/kg/injection, schedule: Q04DX002 (ip), vehicle: saline with Tween-80
[7] = dose: 200.0 mg/kg/injection, schedule: Q01DX009 (ip), vehicle: saline with Tween-80
[8] = dose: 200.0 mg/kg/injection, schedule: Q04DX002 (ip), vehicle: saline with Tween-80
[9] = dose: 400.0 mg/kg/injection, schedule: Q01DX009 (ip), vehicle: saline with Tween-80
[10] = dose: 100.0 mg/kg/injection, schedule: Q04DX003 (ip), vehicle: saline with Tween-80
[11] = dose: 200.0 mg/kg/injection, schedule: Q04DX003 (ip), vehicle: saline with Tween-80
[12] = dose: 200.0 mg/kg/injection, schedule: Q01DX001 (ip), vehicle: saline
[13] = dose: 100.0 mg/kg/injection, schedule: Q04DX002 (ip), vehicle: Klucel (hydroxypropylcellulose) (HPC)
[14] = dose: 200.0 mg/kg/injection, schedule: Q04DX002 (ip), vehicle: Klucel (hydroxypropylcellulose) (HPC)
[15] = dose: 400.0 mg/kg/injection, schedule: Q04DX002 (ip), vehicle: Klucel (hydroxypropylcellulose) (HPC)
[16] = dose: 100.0 mg/kg/injection, schedule: Q01DX009 (ip), vehicle: Klucel (hydroxypropylcellulose) (HPC)
[17] = dose: 200.0 mg/kg/injection, schedule: Q01DX009 (ip), vehicle: Klucel (hydroxypropylcellulose) (HPC)
[18] = dose: 200.0 mg/kg/injection, schedule: Q01DX009 (ip), vehicle: saline
[19] = dose: 400.0 mg/kg/injection, schedule: Q04DX003 (ip), vehicle: saline with Tween-80
[20] = dose: 100.0 mg/kg/injection, schedule: Q04DX003 (ip), vehicle: saline
[21] = dose: 200.0 mg/kg/injection, schedule: Q04DX003 (ip), vehicle: saline

C1CCC2(CC1)CN2
T/C [1]: 103 % of control | T/C [2]: 100 % of control | T/C [3]: 97 % of control | T/C [4]: 104 % of control

COc1ccc(NC(=S)NC(=O)COc2ccccc2)cc1
T/C [5]: 101 % of control and 107 % of control | T/C [6]: 107 % of control and 87 % of control | T/C [7]: 102 % of control | T/C [8]: 100 % of control and 90 % of control | T/C [9]: 89 % of control | T/C (dose: 400.0 mg/kg/injection, schedule: Q04DX002 (ip), vehicle: saline with Tween-80): 106 % of control

CCN(CC)c1cccc(O)c1
T/C [10]: 90 % of control | T/C [11]: 95 % of control

O=NN(CCCl)C(=O)N[C@H]1CCC[C@@H](O)C1
T/C (dose: 12.0 mg/kg/injection, schedule: Q01DX001 (ip), vehicle: saline with Tween-80): 176 % of control | T/C (dose: 18.0 mg/kg/injection, schedule: Q01DX001 (ip), vehicle: saline with Tween-80): 306 % of control | T/C (dose: 26.0 mg/kg/injection, schedule: Q01DX001 (ip), vehicle: saline with Tween-80): 468 % of control | T/C (dose: 40.0 mg/kg/injection, schedule: Q01DX001 (ip), vehicle: saline with Tween-80): 468 % of control | T/C (dose: 60.0 mg/kg/injection, schedule: Q01DX001 (ip), vehicle: saline with Tween-80): 382 % of control | T/C (dose: 90.0 mg/kg/injection, schedule: Q01DX001 (ip), vehicle: saline with Tween-80): 86 % of control

NNCC(F)(F)F
T/C [3]: 101 % of control

CC1CC(=O)C(CCC#N)=C(Cl)C1 (stereo unspecified)
T/C (dose: 50.0 mg/kg/injection, schedule: Q01DX009 (ip), vehicle: saline with Tween-80): 100 % of control | T/C [5]: 96 % of control | T/C [7]: 96 % of control

S=C(c1cccs1)N1CCOCC1
T/C (dose: 100.0 mg/kg/injection, schedule: Q04DX003 (ip), vehicle: gum acacia): 93 % of control | T/C (dose: 200.0 mg/kg/injection, schedule: Q04DX003 (ip), vehicle: gum acacia): 100 % of control | T/C (dose: 400.0 mg/kg/injection, schedule: Q04DX003 (ip), vehicle: gum acacia): 91 % of control

Cc1ccc(/C=C2\CCC3C(=O)CCCC3C2=O)cc1 (stereo unspecified)
T/C [3]: 107 % of control | T/C [12]: 89 % of control

CCOC(=O)C(=O)Cc1ccccc1[N+](=O)[O-]
T/C (dose: 100.0 mg/kg/injection, schedule: Q01DX001 (ip), vehicle: Klucel (hydroxypropylcellulose) (HPC)): 96 % of control | T/C (dose: 200.0 mg/kg/injection, schedule: Q01DX001 (ip), vehicle: Klucel (hydroxypropylcellulose) (HPC)): 102 % of control | T/C (dose: 400.0 mg/kg/injection, schedule: Q01DX001 (ip), vehicle: Klucel (hydroxypropylcellulose) (HPC)): 95 % of control

CC1=CC(=C(C#N)C#N)CC(C)(C)C1
T/C [13]: 101 % of control | T/C [14]: 101 % of control | T/C [15]: 93 % of control

NC(=O)N1c2ccccc2C=Cc2ccccc21
T/C (dose: 12.5 mg/kg/injection, schedule: Q01DX009 (ip), vehicle: Klucel (hydroxypropylcellulose) (HPC)): 93 % of control | T/C (dose: 25.0 mg/kg/injection, schedule: Q01DX009 (ip), vehicle: Klucel (hydroxypropylcellulose) (HPC)): 93 % of control | T/C (dose: 50.0 mg/kg/injection, schedule: Q01DX009 (ip), vehicle: Klucel (hydroxypropylcellulose) (HPC)): 96 % of control | T/C [16]: 89 % of control | T/C [13]: 103 % of control | T/C [17]: 94 % of control | T/C [14]: 110 % of control | T/C [15]: 110 % of control

CNC(=O)CCC(NC(=O)c1ccc(N(C)Cc2cnc3nc(N)nc(N)c3n2)cc1)C(=O)O (stereo unspecified)
T/C (dose: 25.0 mg/kg/injection, schedule: Q01DX009 (ip), vehicle: sodium bicarbonate): 116 % of control | T/C (dose: 100.0 mg/kg/injection, schedule: Q01DX009 (ip), vehicle: sodium bicarbonate): 158 % of control

Nc1ccc([I+]c2ccccc2)cc1
T/C (dose: 50.0 mg/kg/injection, schedule: Q01DX001 (ip), vehicle: saline): 101 % of control | T/C [3]: 103 % of control

O=C(NC/C(Cl)=C/Cl)Oc1cccc2ccccc12
T/C (dose: 75.0 mg/kg/injection, schedule: Q01DX009 (ip), vehicle: Klucel (hydroxypropylcellulose) (HPC)): 107 % of control | T/C (dose: 150.0 mg/kg/injection, schedule: Q01DX009 (ip), vehicle: Klucel (hydroxypropylcellulose) (HPC)): 104 % of control | T/C (dose: 300.0 mg/kg/injection, schedule: Q01DX009 (ip), vehicle: Klucel (hydroxypropylcellulose) (HPC)): 98 % of control

C=C1c2ccccc2N(C)C1(COc1ccc(Br)cc1)OC(=O)c1cccc(Cl)c1 (stereo unspecified)
T/C [13]: 95 % of control | T/C [14]: 95 % of control | T/C [15]: 98 % of control

CC12NC(=O)NC1(C)NC(=O)N2 (stereo unspecified)
T/C [1]: 89 % of control | T/C [2]: 95 % of control | T/C [4]: 96 % of control and 89 % of control | T/C [10]: 96 % of control | T/C [18]: 100 % of control | T/C [11]: 102 % of control | T/C [19]: 96 % of control

O=C(Nc1cccc(Cl)c1)Nc1ccc(Cl)c(C(F)(F)F)c1
T/C (dose: 50.0 mg/kg/injection, schedule: Q01DX001 (ip), vehicle: carboxymethylcellulose (CMC)): 94 % of control | T/C (dose: 100.0 mg/kg/injection, schedule: Q01DX001 (ip), vehicle: carboxymethylcellulose (CMC)): 105 % of control | T/C (dose: 200.0 mg/kg/injection, schedule: Q01DX001 (ip), vehicle: carboxymethylcellulose (CMC)): 100 % of control | T/C (dose: 400.0 mg/kg/injection, schedule: Q01DX001 (ip), vehicle: carboxymethylcellulose (CMC)): 102 % of control

O=C(CCCCCCCCC(=O)Nc1cccc(C(F)(F)F)c1)Nc1cccc(C(F)(F)F)c1
T/C [16]: 101 % of control | T/C [17]: 92 % of control | T/C (dose: 400.0 mg/kg/injection, schedule: Q01DX009 (ip), vehicle: Klucel (hydroxypropylcellulose) (HPC)): 95 % of control

Clc1ccnc(SCc2ccccc2)n1
T/C (dose: 100.0 mg/kg/injection, schedule: Q01DX Z (ip), vehicle: methylcellulose (MC)): 91 % of control | T/C (dose: 200.0 mg/kg/injection, schedule: Q01DX Z (ip), vehicle: methylcellulose (MC)): 104 % of control

Cn1c(CO)nc2c1c(=O)[nH]c(=O)n2C
T/C (dose: 100.0 mg/kg/injection, schedule: Q01DX001 (ip), vehicle: other): 98 % of control | T/C (dose: 200.0 mg/kg/injection, schedule: Q01DX001 (ip), vehicle: other): 98 % of control | T/C (dose: 400.0 mg/kg/injection, schedule: Q01DX001 (ip), vehicle: other): 95 % of control

Cc1ccc(S(=O)(=O)C[n+]2ccccc2)cc1
T/C [6]: 98 % of control | T/C [8]: 94 % of control

Clc1ccc(CSc2ncnc3nc[nH]c23)cc1Cl
T/C [10]: 93 % of control | T/C [11]: 94 % of control | T/C [19]: 104 % of control

CN=C(c1ccc(NC(=O)c2ccc(C(=O)Nc3ccc(C(=NC)N(C)Cc4ccccc4)cc3)cc2)cc1)N(C)Cc1ccccc1
T/C (dose: 1.88 mg/kg/injection, schedule: Q01DX Z (ip), vehicle: saline): 104 % of control | T/C (dose: 3.75 mg/kg/injection, schedule: Q01DX Z (ip), vehicle: saline): 98 % of control | T/C (dose: 7.5 mg/kg/injection, schedule: Q01DX Z (ip), vehicle: saline): 97 % of control

NCCCCC(N)C(=O)CCl (stereo unspecified)
T/C (dose: 25.0 mg/kg/injection, schedule: Q04DX002 (ip), vehicle: saline): 110 % of control | T/C (dose: 50.0 mg/kg/injection, schedule: Q04DX002 (ip), vehicle: saline): 97 % of control | T/C (dose: 100.0 mg/kg/injection, schedule: Q04DX002 (ip), vehicle: saline): 94 % of control

CC1OC2COC(C)OC2C(C(O)COC(=O)c2ccc([N+](=O)[O-])cc2)O1 (stereo unspecified)
T/C [4]: 98 % of control | T/C [20]: 110 % of control | T/C [18]: 98 % of control | T/C [21]: 104 % of control | T/C (dose: 400.0 mg/kg/injection, schedule: Q01DX009 (ip), vehicle: saline): 103 % of control | T/C (dose: 400.0 mg/kg/injection, schedule: Q04DX003 (ip), vehicle: saline): 101 % of control

Cc1ccccc1OCCCCCl
T/C [5]: 95 % of control | T/C [10]: 97 % of control | T/C [7]: 88 % of control | T/C [11]: 92 % of control | T/C [9]: 89 % of control | T/C [19]: 100 % of control

CC(=O)Nc1cccc(-c2ccccc2Cl)c1
T/C [3]: 93 % of control | T/C [12]: 96 % of control | T/C (dose: 400.0 mg/kg/injection, schedule: Q01DX001 (ip), vehicle: saline): 98 % of control

NC(=S)N/N=C/c1ccncc1
T/C [2]: 96 % of control | T/C [4]: 98 % of control | T/C [20]: 96 % of control | T/C [18]: 93 % of control | T/C [21]: 91 % of control
